Results published in patent US12729377B2, “RNAi agents and compositions for inhibiting expression of angiopoietin-like 3 (ANGPTL3), and methods of use” (Arrowhead Pharmaceuticals, Inc., priority 2017, dated 2026).
In the oligonucleotide strings, read from the 5' end, every base follows the letter of its sugar. An asterisk marks phosphorothioate; unmarked linkages are phosphodiester. Other units and linkages are bracketed, terminal groups are in braces. A string of capitals states the bases alone. {NAG37} = tridentate N-acetyl-galactosamine targeting ligand, structure (NAG37)s; [invAb] = inverted abasic unit; m = 2'-O-methyl; f = 2'-fluoro

Legend:
ANGPTL3 protein = experiment: Example 8: serum ANGPTL3 protein by ELISA in cynomolgus monkeys; type: in vivo, cynomolgus macaque (Macaca fascicularis); details: for Avg ANGPTL3 protein normalized to pre-treatment: 3.0 mg/kg single SC injection day 1, cynos, n=2; for reduction in ANGPTL3 protein compared to pre-treatment: all measured time points, single 3.0 mg/kg subcutaneous, cynomolgus monkeys
Procedure: (§1) Additional ANGPTL3 RNAi agents were evaluated in cynomolgus monkeys. On day 1, cynomolgus macaque (Macaca fascicularis) primates (also referred to herein as “cynos”) were administered a single subcutaneous injection of 0.3 mL/kg (approximately 1-2 mL volume, depending on animal mass) containing 3.0 mg/kg of one of ANGPTL3 RNAi agent AD05577, AD05307, AD05488, AD05654, or AD05659, each formulated in saline.
(§2) Two (2) cynos in each group were tested (n=2). Blood samples were drawn and serum samples were analyzed on days −8 (pre-dose), 1 (pre-dose), 8, 15, 22, 29, and 36. Cynos were fasted overnight prior to each collection. ANGPTL3 protein levels in serum were measured by ELISA assay (R&D Systems), according to the manufacturer's recommendations. Triglycerides, total cholesterol, high-density lipoprotein (HDL), and low-density lipoprotein (LDL) in serum were measured on a Cobas® Integra 400 (Roche Diagnostics), according to the manufacturer's recommendations.
(§3) The ANGPTL3 protein levels, triglyceride levels, total cholesterol levels, HDL levels, and LDL levels for each animal were normalized. For normalization, the level of ANGPTL3 protein, triglyceride, HDL, and total cholesterol, respectively, for each animal at a time point, was divided by the average pre-treatment level of expression in that animal (in this case at days −8, and 1 (pre-dose)) to determine the ratio of expression “normalized to pre-treatment.”

ANGPTL3 gene [1] = experiment: Example 8: serum triglycerides in cynomolgus monkeys; type: in vivo, cynomolgus macaque (Macaca fascicularis); details: 3.0 mg/kg single SC injection day 1, cynos, n=2
Procedure: as §1, §2, §3

ANGPTL3 gene [2] = experiment: Example 6: serum LDL in mice; type: in vivo, C57bl/6 mice
Procedure: To assess the in vivo activity of additional ANGPTL3 RNAi agents that are designed to target position 304 on the ANGPTL3 gene, six- to eight-week-old female C57bl/6 mice were used. Pre-dose serum samples were taken at day −1 after a four hour fast. At day 1, each mouse was given a single subcutaneous administration of 200 μl containing 0.5 mg/kg (mpk) of an ANGPTL3 RNAi agent in D5W (dextrose in 5% water), or control (D5W) with no RNAi agent, according to the dosing groups recited in Table 25.
(§4) Each of the RNAi agents included a modified sequence and an N-acetyl-galactosamine-containing targeting ligand conjugated to the 5′ terminal end of the sense strand. (See Tables 3, 4, and 5 for modified sequences and targeting ligand structures). The injections were performed between the skin and muscle (i.e. subcutaneous injections) into the loose skin over the neck and shoulder area. Three (3) mice in each group were tested (n=3). Serum was collected on days 8, 15, 22, 30, and on day 43 for certain groups (i.e., Groups 1, 2, 5, and 10 only). Mice were fasted for four hours prior to each collection. ANGPTL3 protein levels in serum were measured by ELISA assay (R&D Systems), according to the manufacturer's recommendations. Triglycerides, total cholesterol, high-density lipoprotein (HDL), and low-density lipoprotein (LDL) in serum were measured on a Cobas® Integra 400 (Roche Diagnostics), according to the manufacturer's recommendations.
(§5) The ANGPTL3 protein levels, triglyceride levels, total cholesterol levels, HDL levels, and LDL levels for each animal were normalized. For normalization, the level of ANGPTL3 protein, triglyceride, HDL, and total cholesterol, respectively, for each animal at a time point, was divided by the pre-treatment level of expression in that animal (in this case at day −1) to determine the ratio of expression “normalized to pre-treatment.” Expression at a specific time point was then normalized to the D5W control group by dividing the “normalized to pre-treatment” ratio for an individual animal by the mean “normalized to pretreatment” ratio of all mice in the D5W control group.

ANGPTL3 gene [3] = experiment: Example 11: dose response, serum total cholesterol in mice; type: in vivo, C57bl/6 mice
Procedure: To assess the dose response of ANGPTL3 RNAi agent AD05488, six- to eight-week-old female C57bl/6 mice were used. Pre-dose serum samples were taken at day −1 after a four hour fast. At day 1, each mouse was given a single subcutaneous administration of 200 μl containing the respective mg/kg dose of an ANGPTL3 RNAi agent in D5W (dextrose in 5% water), or control (D5W) with no RNAi agent, according to the dosing groups recited in Table 53:
as §4, with “The” for “Each of the”, “agent tested (AD05488)” for “agents”, “Four (4)” for “Three (3)”, “(n=4).” for “(n=3).”, “22,” for “22, 30,”, “29.” for “on day 43 for certain groups (i.e., Groups 1, 2, 5, and 10 only).”
as §5

With “AD05307: RNAi agent duplex: antisense AM07001-AS, sense AM07000-SS (chain 1 mU*fU*mU*fGmAfAmUfUmAfAmUfGmUfCmCfAmUfGmGmG*mC; chain 2 {NAG37}*[invAb]*mGmCmCmCmAmUmGmGfAfCfAmUmUmAmAmUmUmCmAmAmA*[invAb])” the “Avg ANGPTL3 protein normalized to pre-treatment” value (shortened to “Avg ANGPTL3 protein normalized”) (ANGPTL3 protein; Day 8) was 0.486, the “Avg ANGPTL3 protein normalized” value (ANGPTL3 protein; Day 15) was 0.402 and the “Avg ANGPTL3 protein normalized” value (ANGPTL3 protein; Day 22) was 0.726. For the same substance, the “Avg ANGPTL3 protein normalized” value (ANGPTL3 protein; Day 29) was 0.518, the “Avg ANGPTL3 protein normalized” value (ANGPTL3 protein; Day 36) was 0.392 and the “reduction in ANGPTL3 protein compared to pre-treatment” value (ANGPTL3 protein) was “reduction”. The “Avg TG normalized to pre-treatment” value (ANGPTL3 gene [1]; Day 8) was 1.157, the “Avg TG normalized to pre-treatment” value (ANGPTL3 gene [1]; Day 15) was 1.058 and the “Avg TG normalized to pre-treatment” value (ANGPTL3 gene [1]; Day 22) was 0.895. For the same substance, the “Avg TG normalized to pre-treatment” value (ANGPTL3 gene [1]; Day 29) was 0.969 and the “Avg TG normalized to pre-treatment” value (ANGPTL3 gene [1]; Day 36) was 0.806.
For “AD05488: RNAi agent duplex: antisense AM07235-AS, sense AM07234-SS (antisense mU*fA*mC*fUmGfAmUfCmAfAmAfUmAfUmGfUmUfGmAfG*mC; sense {NAG37}*[invAb]*mGmCmUmCmAmAmCmAfUfAfUmUmUmGmAmUmCmAmGmUmA*[invAb])”, the “Avg LDL, normalized to pre-treatment and control” value (“Avg LDL, normalized” below) (ANGPTL3 gene [2]; Day 8, 0.5 mg/kg single SC injection on day 1, n=3) was 0.805, the “Avg LDL, normalized” value (ANGPTL3 gene [2]; Day 15, 0.5 mg/kg single SC injection on day 1, n=3) was 0.880 and the “Avg LDL, normalized” value (ANGPTL3 gene [2]; Day 22, 0.5 mg/kg single SC injection on day 1, n=3) was 0.991. The “Avg LDL, normalized” value (ANGPTL3 gene [2]; Day 30, 0.5 mg/kg single SC injection on day 1, n=3) was 1.093, the “Avg LDL, normalized” value (ANGPTL3 gene [2]; Day 43, 0.5 mg/kg single SC injection on day 1, n=3) was 0.970 and the “Avg ANGPTL3 protein normalized” value (ANGPTL3 protein; Day 8) was 0.423. For the same substance, the “Avg ANGPTL3 protein normalized” value (ANGPTL3 protein; Day 15) was 0.334, the “Avg ANGPTL3 protein normalized” value (ANGPTL3 protein; Day 22) was 0.343 and the “Avg ANGPTL3 protein normalized” value (ANGPTL3 protein; Day 29) was 0.276. The “Avg ANGPTL3 protein normalized” value (ANGPTL3 protein; Day 36) was 0.229, the “reduction in ANGPTL3 protein compared to pre-treatment” value (ANGPTL3 protein) was “reduction” and the “Avg TG normalized to pre-treatment” value (ANGPTL3 gene [1]; Day 8) was 0.727. The “Avg TG normalized to pre-treatment” value (ANGPTL3 gene [1]; Day 15) was 0.586, the “Avg TG normalized to pre-treatment” value (ANGPTL3 gene [1]; Day 22) was 0.399 and the “Avg TG normalized to pre-treatment” value (ANGPTL3 gene [1]; Day 29) was 0.534. The “Avg TG normalized to pre-treatment” value (ANGPTL3 gene [1]; Day 36) was 0.364, the “Avg Total Chol Normalized to Pre-Treatment and Control” value (“Avg Total Chol Normalized” for short) (ANGPTL3 gene [3]; 0.05 mg/kg single sc day 1, Day 8) was 0.856 and the “Avg Total Chol Normalized” value (ANGPTL3 gene [3]; 0.05 mg/kg single sc day 1, Day 15) was 1.090. The “Avg Total Chol Normalized” value (ANGPTL3 gene [3]; 0.05 mg/kg single sc day 1, Day 22) was 0.946, the “Avg Total Chol Normalized” value (ANGPTL3 gene [3]; 0.05 mg/kg single sc day 1, Day 29) was 0.915 and the “Avg Total Chol Normalized” value (ANGPTL3 gene [3]; 0.1 mg/kg single sc day 1, Day 8) was 0.820. The “Avg Total Chol Normalized” value (ANGPTL3 gene [3]; 0.1 mg/kg single sc day 1, Day 15) was 0.974, the “Avg Total Chol Normalized” value (ANGPTL3 gene [3]; 0.1 mg/kg single sc day 1, Day 22) was 0.785 and the “Avg Total Chol Normalized” value (ANGPTL3 gene [3]; 0.1 mg/kg single sc day 1, Day 29) was 0.945. For the same substance, the “Avg Total Chol Normalized” value (ANGPTL3 gene [3]; 0.5 mg/kg single sc day 1, Day 8) was 0.740, the “Avg Total Chol Normalized” value (ANGPTL3 gene [3]; 0.5 mg/kg single sc day 1, Day 15) was 0.918 and the “Avg Total Chol Normalized” value (ANGPTL3 gene [3]; 0.5 mg/kg single sc day 1, Day 22) was 0.897. For the same substance, the “Avg Total Chol Normalized” value (ANGPTL3 gene [3]; 0.5 mg/kg single sc day 1, Day 29) was 0.883, the “Avg Total Chol Normalized” value (ANGPTL3 gene [3]; 1.0 mg/kg single sc day 1, Day 8) was 0.610 and the “Avg Total Chol Normalized” value (ANGPTL3 gene [3]; 1.0 mg/kg single sc day 1, Day 15) was 0.816. For the same substance, the “Avg Total Chol Normalized” value (ANGPTL3 gene [3]; 1.0 mg/kg single sc day 1, Day 22) was 0.857, the “Avg Total Chol Normalized” value (ANGPTL3 gene [3]; 1.0 mg/kg single sc day 1, Day 29) was 0.920 and the “Avg Total Chol Normalized” value (ANGPTL3 gene [3]; 2.5 mg/kg single sc day 1, Day 8) was 0.647. For the same substance, the “Avg Total Chol Normalized” value (ANGPTL3 gene [3]; 2.5 mg/kg single sc day 1, Day 15) was 0.832, the “Avg Total Chol Normalized” value (ANGPTL3 gene [3]; 2.5 mg/kg single sc day 1, Day 22) was 0.772 and the “Avg Total Chol Normalized” value (ANGPTL3 gene [3]; 2.5 mg/kg single sc day 1, Day 29) was 0.694. The “Avg Total Chol Normalized” value (ANGPTL3 gene [3]; 5.0 mg/kg single sc day 1, Day 8) was 0.583, the “Avg Total Chol Normalized” value (ANGPTL3 gene [3]; 5.0 mg/kg single sc day 1, Day 15) was 0.787 and the “Avg Total Chol Normalized” value (ANGPTL3 gene [3]; 5.0 mg/kg single sc day 1, Day 22) was 0.790. The “Avg Total Chol Normalized” value (ANGPTL3 gene [3]; 5.0 mg/kg single sc day 1, Day 29) was 0.783.
